Reference: patent publication US11174245B2, “Benzimidazole compounds and derivatives as EGFR inhibitors” (Boehringer Ingelheim International GmbH, priority 2018, dated 2021)

Assays:
[1] = target: EGFR (mutated) 695-1022, T790M, C797S, L858R (Homo sapiens (Human), UniProt P00533, C797S/L858R/T790M); assay: Biochemical EGFR inhibition assay (TR-FRET, poly-GT substrate), EGFR T790M C797S L858R; settings: read-out: LR_TM_CS (5 μM ATP) IC50; 5 μM ATP
Protocol: (§1) Biochemical EGFR Inhibition Assays
(§2) Initially, the inhibitory effect of compounds according to the invention is measured in biochemical assays which measure the phosphorylation activity of EGFR enzyme forms on poly-GT substrate in the presence of different concentrations of ATP (5 μM and 100 μM final assay concentration).
(§3) The following enzyme forms of EGFR are representative examples that can be used in these assays at the given concentrations:
(§4) For the chosen highest assay concentration of 100 μM, 150 nL of compound solution is transferred from a 10 mM DMSO compound stock solution. A series of eleven fivefold dilutions per compound is transferred to the assay plate, compound dilutions are tested in duplicates. DMSO is added as backfill to a total volume of 150 nL. The assay runs on a fully automated robotic system.
(§5) These biochemical EGFR enzyme form compound dose-response assays quantify the kinase activity via phosphorylation of a tagged poly-GT substrate. The results of the assay are provided as IC50 values.

EGFR wt = EGFR wt (Homo sapiens (Human), UniProt P00533); assay: Biochemical EGFR inhibition assay (TR-FRET, poly-GT substrate), EGFR wt; settings: read-out: wt (5 μM ATP) IC50; 5 μM ATP
EGFR wt, sequence (P00533 25-1210): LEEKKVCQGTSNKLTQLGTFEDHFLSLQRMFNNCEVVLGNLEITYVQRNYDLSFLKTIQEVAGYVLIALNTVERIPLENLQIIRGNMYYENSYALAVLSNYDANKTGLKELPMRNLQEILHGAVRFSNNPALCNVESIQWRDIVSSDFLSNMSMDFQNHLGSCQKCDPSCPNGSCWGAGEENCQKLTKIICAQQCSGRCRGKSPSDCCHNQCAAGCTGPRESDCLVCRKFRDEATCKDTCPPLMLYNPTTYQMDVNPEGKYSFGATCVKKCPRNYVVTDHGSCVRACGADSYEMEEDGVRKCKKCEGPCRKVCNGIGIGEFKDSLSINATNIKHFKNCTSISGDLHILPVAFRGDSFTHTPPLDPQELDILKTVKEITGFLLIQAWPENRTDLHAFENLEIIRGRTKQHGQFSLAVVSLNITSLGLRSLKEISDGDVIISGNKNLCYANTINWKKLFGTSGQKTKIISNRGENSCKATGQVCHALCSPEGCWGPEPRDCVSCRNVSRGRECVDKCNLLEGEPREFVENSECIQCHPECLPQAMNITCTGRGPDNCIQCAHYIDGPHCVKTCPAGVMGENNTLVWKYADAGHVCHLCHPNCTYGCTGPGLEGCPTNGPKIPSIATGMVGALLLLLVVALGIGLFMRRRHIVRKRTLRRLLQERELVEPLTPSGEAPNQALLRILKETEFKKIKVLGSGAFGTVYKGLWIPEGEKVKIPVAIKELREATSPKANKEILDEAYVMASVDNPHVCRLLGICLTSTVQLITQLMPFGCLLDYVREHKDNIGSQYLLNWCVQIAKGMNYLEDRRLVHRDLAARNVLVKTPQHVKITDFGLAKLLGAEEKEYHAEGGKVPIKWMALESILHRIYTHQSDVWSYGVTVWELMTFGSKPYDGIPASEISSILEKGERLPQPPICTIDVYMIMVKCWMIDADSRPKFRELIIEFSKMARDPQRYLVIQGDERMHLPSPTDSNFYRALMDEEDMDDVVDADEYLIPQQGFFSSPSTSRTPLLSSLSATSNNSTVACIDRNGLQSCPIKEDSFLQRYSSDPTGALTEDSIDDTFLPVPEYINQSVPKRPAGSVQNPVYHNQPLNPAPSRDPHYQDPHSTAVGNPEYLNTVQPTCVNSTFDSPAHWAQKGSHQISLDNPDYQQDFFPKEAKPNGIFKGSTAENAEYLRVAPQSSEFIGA
Protocol: as §1, §2, §3, §4, §5

[2] = target: EGFR del19 T790M C797S protein in Ba/F3 cells (Homo sapiens, UniProt P00533, C797S/DEL746-750/T790M); assay: pEGFR assay (AlphaScreen Surefire, EGFR Tyr1068 phosphorylation); type: cell-based
EGFR del19 T790M C797S protein in Ba/F3 cells, sequence (P00533 with tags, fused parts or gaps C797S/DEL746-750/T790M limits assumed): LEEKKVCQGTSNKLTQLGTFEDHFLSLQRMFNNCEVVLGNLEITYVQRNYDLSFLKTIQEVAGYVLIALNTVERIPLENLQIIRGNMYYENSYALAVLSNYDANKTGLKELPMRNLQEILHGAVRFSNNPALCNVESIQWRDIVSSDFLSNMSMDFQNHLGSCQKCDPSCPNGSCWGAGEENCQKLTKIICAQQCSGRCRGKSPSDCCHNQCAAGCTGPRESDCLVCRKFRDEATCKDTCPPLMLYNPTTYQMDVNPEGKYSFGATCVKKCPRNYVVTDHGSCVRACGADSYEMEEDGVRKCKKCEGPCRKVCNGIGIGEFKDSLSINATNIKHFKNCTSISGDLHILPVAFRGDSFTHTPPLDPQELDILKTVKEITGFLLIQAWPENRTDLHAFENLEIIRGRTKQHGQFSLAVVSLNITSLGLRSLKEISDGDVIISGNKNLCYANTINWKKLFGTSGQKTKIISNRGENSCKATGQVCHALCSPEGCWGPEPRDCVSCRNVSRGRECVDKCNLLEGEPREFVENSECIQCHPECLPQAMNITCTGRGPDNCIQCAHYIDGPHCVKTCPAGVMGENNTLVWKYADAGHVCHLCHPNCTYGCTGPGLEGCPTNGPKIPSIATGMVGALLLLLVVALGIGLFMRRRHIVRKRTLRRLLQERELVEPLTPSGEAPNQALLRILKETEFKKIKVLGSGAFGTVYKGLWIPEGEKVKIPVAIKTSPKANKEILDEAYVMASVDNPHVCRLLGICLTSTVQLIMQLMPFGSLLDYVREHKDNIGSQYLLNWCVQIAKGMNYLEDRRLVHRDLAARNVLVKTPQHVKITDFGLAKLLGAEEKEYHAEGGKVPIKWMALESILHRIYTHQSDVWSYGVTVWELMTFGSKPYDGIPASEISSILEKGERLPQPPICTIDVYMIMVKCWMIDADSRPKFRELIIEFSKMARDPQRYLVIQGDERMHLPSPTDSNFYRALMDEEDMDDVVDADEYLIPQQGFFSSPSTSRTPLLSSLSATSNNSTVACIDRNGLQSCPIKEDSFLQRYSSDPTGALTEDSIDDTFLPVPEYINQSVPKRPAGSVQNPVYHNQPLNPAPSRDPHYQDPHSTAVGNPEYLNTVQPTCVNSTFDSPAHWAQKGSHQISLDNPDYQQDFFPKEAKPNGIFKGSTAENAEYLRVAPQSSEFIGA
Protocol: Transduced cells were selected using puromycin. Following selection, IL-3 was withdrawn and IL-3 independent cells cultured. p-EGFR Tyr1068 was determined using the AlphaScreen Surefire pEGF Receptor (Tyr1068) Assay (PerkinElmer, TGRERS). […] Subsequently, 60.000 cells/well in 60 μL were added. Cells were incubated with compound for 4 h at 37° C. […] The mixture was incubated at room temperature with shaking (700 rpm) for 20 min. After centrifugation, 4 μL of the lysate were transferred to Proxiplates. […] Plates were shaken for 1 min (1400 rpm) and incubated for 2 h at room temperature in the dark.
The results of the assay are provided as IC50 values (see table 12).

EGFR (mutated) 695-1022, T790M, C797S, L858R, sequence (P00533 695-1022 T790M/C797S/L858R): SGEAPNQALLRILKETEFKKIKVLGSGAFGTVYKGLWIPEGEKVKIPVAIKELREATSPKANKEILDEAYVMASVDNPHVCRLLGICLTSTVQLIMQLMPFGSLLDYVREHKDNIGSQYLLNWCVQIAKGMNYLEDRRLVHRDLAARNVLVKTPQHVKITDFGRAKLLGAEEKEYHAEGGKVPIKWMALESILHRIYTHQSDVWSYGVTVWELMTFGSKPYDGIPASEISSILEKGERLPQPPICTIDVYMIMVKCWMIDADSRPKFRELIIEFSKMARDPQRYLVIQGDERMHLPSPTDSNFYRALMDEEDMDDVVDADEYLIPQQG

SMILES | IC50 [1] [nM] | IC50 (EGFR wt) [nM] | IC50 [2] [nM]
Cn1cc(-c2cc(C(=O)/N=c3\[nH]c4cc(CN5CCOCC5)ccc4n3[C@H]3CC[C@@H](O)CC3)cc(F)n2)cn1 [I-135] | 0.8 | 225 | 2
COc1ccccc1-c1cc(C(=O)/N=c2\[nH]c3ccccc3n2[C@@H]2CC[C@H](O)[C@H](O)C2)ccn1 [I-144] | 6.9 | 110 | 3
Cn1cc(-c2cc(C(=O)/N=c3\[nH]c4cc(CN5CCOCC5)ccc4n3[C@H]3CC[C@@H](O)CC3)cc(C#N)n2)cn1 [I-145] | 1.7 | 397 | 3
COc1ccccc1-c1cc(C(=O)/N=c2\[nH]c3cc(CN4CCOCC4)ccc3n2[C@H]2CCC[C@@H](O)C2)ccn1 [I-148] | 3.3 | 77.8 | 4
COc1ccccc1-c1cc(C(=O)/N=c2\[nH]c3ccccc3n2[C@H]2CC[C@H](O)[C@H](O)C2)ccn1 [I-149] | 8.5 | 148 | 4
COc1ccccc1-c1cc(C(=O)/N=c2\[nH]c3cc(C4CCN(C(C)=O)C4)ccc3n2CC(C)(C)O)ccn1 (stereo not drawn) [I-158] | 1.5 | 56.3 | 6
C#Cc1cc(C(=O)/N=c2\[nH]c3ccccc3n2[C@H]2CC[C@@H](O)CC2)cc(-c2cnn(C)c2)n1 [I-171] | 8.8 | 2970 | 8
COc1ccccc1-c1cc(C(=O)/N=c2\[nH]c3cc(CN4CCOCC4)ccc3n2[C@H]2CCC[C@H](O)C2)ccn1 [I-181] | 1.7 | 31 | 12
Cn1cc(-c2cc(C(=O)/N=c3\[nH]c4cc(CCCO)ccc4n3CC(C)(C)O)ccn2)cn1 [I-184] | 7.8 | 1520 | 19
COc1ccncc1-c1cc(C(=O)/N=c2\[nH]c3cc(CN4CCOCC4)ccc3n2[C@H]2CC[C@@H](O)CC2)cc(C#N)n1 [I-196] | 3 | 1400 | 5
Cc1cc(C(=O)/N=c2\[nH]c3cc(CN4CCOCC4)ccc3n2[C@H]2CC[C@@H](O)CC2)cc(-c2cnn(C)c2)n1 [I-197] | 2.7 | 5010 | 7
COc1ccccc1-c1cc(C(=O)/N=c2\[nH]c3ccccc3n2[C@@H]2CC[C@H](O)[C@@H](O)C2)ccn1 [I-198] | 7.7 | 77.1 | 18
Cn1cc(-c2cc(C(=O)/N=c3\[nH]c4cc(CC#N)ccc4n3CC(C)(C)O)ccn2)cn1 [I-199] | 6.8 | 1520 | 15
CC(=O)N1CCC(c2ccc3c(c2)[nH]/c(=N\C(=O)c2cc(C#N)nc(-c4cnn(C)c4)c2)n3[C@H]2CC[C@@H](O)CC2)CC1 [I-202] | 0.9 | 173 | 5
Cc1cc(C(=O)/N=c2\[nH]c3ccccc3n2[C@H]2CCC[C@H](O)C2)cc(-c2cnn(C)c2)n1 [I-204] | 26.2 | 9290 | 6
CC(=O)N1CCC(c2ccc3c(c2)[nH]/c(=N\C(=O)c2cc(C)nc(-c4cnn(C)c4)c2)n3[C@H]2CC[C@@H](O)CC2)CC1 [I-205] | 3.6 | 1480 | 8
Cc1cc(C(=O)/N=c2\[nH]c3ccccc3n2[C@@H]2C[C@H](O)C[C@H](O)C2)cc(-c2cnn(C)c2)n1 [I-206] | 17.7 | 12900 | 37
Cc1cc(C(=O)/N=c2\[nH]c3cc(CN4CCN(C)CC4)ccc3n2[C@H]2CCC[C@H](O)C2)cc(-c2cnn(C)c2)n1 [I-208] | 5.4 | 7470 | 44
Cc1cc(C(=O)/N=c2\[nH]c3cc(CN4CCOCC4)ccc3n2[C@H]2CCC[C@H](O)C2)cc(-c2cnn(C)c2)n1 [I-209] | 8.1 | 5800 | 14
Cn1cc(-c2cc(C(=O)/N=c3\[nH]c4ccccc4n3[C@H]3CCC[C@H](O)C3)cc(C#N)n2)cn1 [I-210] | 4.3 | 664 | 9
Cn1cc(-c2cc(C(=O)/N=c3\[nH]c4ccccc4n3C3CCCS(=O)(=O)C3)ccn2)cn1 (stereo not drawn) [I-212] | 2.5 | 318 | 22
Cc1cc(C(=O)/N=c2\[nH]c3ccc(CN4CCOCC4)cc3n2CC(C)(C)O)cc(-c2cnn(C)c2)n1 [I-213] | 54.1 | > 100000 | 45
Cc1cc(C(=O)/N=c2\[nH]c3ccc(CN4CCN(C)CC4)cc3n2CC(C)(C)O)cc(-c2cnn(C)c2)n1 [I-214] | 10.1 | 9660 | 38
CNc1cc(C(=O)/N=c2\[nH]c3ccccc3n2[C@H]2CC[C@@H](O)CC2)cc(-c2cnn(C)c2)n1 [I-215] | 4.9 | 8380 | 14
Cn1cc(-c2cc(C(=O)/N=c3\[nH]c4ccccc4n3[C@H]3CC[C@@H](O)CC3)cc(CF)n2)cn1 [I-216] | 8.1 | 2670 | 17
Cc1cc(C(=O)/N=c2\[nH]c3ccccc3n2C2CCCS(=O)(=O)C2)cc(-c2cnn(C)c2)n1 (stereo not drawn) [I-217] | 33 | > 100000 | 75

Second part, the molecule after the results:

IC50 [1] [nM] | IC50 (EGFR wt) [nM] | IC50 [2] [nM] | SMILES
2 | 312 | 2 | O=C(/N=c1\[nH]c2ccccc2n1[C@H]1CC[C@@H](O)CC1)c1ccnc(-c2ccccc2F)c1 [I-141]
2.8 | 1540 | 5 | Cn1cc(-c2cc(C(=O)/N=c3\[nH]c4ccccc4n3[C@H]3CC[C@@H](O)CC3)cc(Cl)n2)cn1 [I-146]
13.3 | 3150 | 5 | O=C(/N=c1\[nH]c2ccccc2n1[C@H]1CC[C@@H](O)CC1)c1ccnc(-c2coc3cccnc23)c1 [I-156]
4.6 | 70.4 | 5 | COc1ccc(F)cc1-c1cc(C(=O)/N=c2\[nH]c3ccccc3n2[C@H]2CC[C@@H](O)CC2)ccn1 [I-157]
2.4 | 205 | 6 | Cc1cccc(-c2cc(C(=O)/N=c3\[nH]c4ccccc4n3[C@H]3CC[C@@H](O)CC3)ccn2)c1 [I-161]
14.2 | 1180 | 6 | COc1c(C)cccc1-c1cc(C(=O)/N=c2\[nH]c3ccccc3n2[C@H]2CC[C@@H](O)CC2)ccn1 [I-162]
10.4 | 110 | 7 | O=C(/N=c1\[nH]c2ccccc2n1[C@H]1CC[C@@H](O)CC1)c1ccnc(-c2ccccc2OC(F)F)c1 [I-163]
4.6 | 995 | 7 | COc1ccncc1-c1cc(C(=O)/N=c2\[nH]c3ccccc3n2[C@H]2CC[C@@H](O)CC2)cc(C#N)n1 [I-167]
5 | 1270 | 10 | Cn1cc(-c2cc(C(=O)/N=c3\[nH]c4ccccc4n3[C@H]3COC[C@H](O)C3)ccn2)cn1 [I-168]
2.8 | 81.6 | 11 | COc1cc(F)ccc1-c1cc(C(=O)/N=c2\[nH]c3ccccc3n2[C@H]2CC[C@@H](O)CC2)ccn1 [I-169]
13.6 | 557 | 10 | COc1c(F)cccc1-c1cc(C(=O)/N=c2\[nH]c3ccccc3n2[C@H]2CC[C@@H](O)CC2)ccn1 [I-175]
4 | 293 | 11 | O=C(/N=c1\[nH]c2ccccc2n1[C@H]1CC[C@@H](O)CC1)c1ccnc(-c2ccncc2)c1 [I-176]
33.8 | 3600 | 12 | O=C(/N=c1\[nH]c2ccccc2n1[C@H]1CC[C@@H](O)CC1)c1ccnc(-c2cccn3ncnc23)c1 [I-179]
4.8 | 302 | 12 | O=C(/N=c1\[nH]c2ccccc2n1[C@H]1CC[C@@H](O)CC1)c1ccnc(-c2ccc(F)cc2F)c1 [I-180]
35.6 | 3240 | 23 | O=C(/N=c1\[nH]c2ccccc2n1[C@H]1CC[C@@H](O)CC1)c1ccnc(-c2cccc(F)c2)c1 [I-185]
7.4 | 1660 | 44 | Cn1cc(-c2cc(C(=O)/N=c3\[nH]c4ccccc4n3[C@H]3COC[C@@H](O)C3)ccn2)cn1 [I-191]
1.2 | 231 | 2 | O=C(/N=c1\[nH]c2ccccc2n1[C@H]1CC[C@@H](O)CC1)c1ccnc(-c2cnn(C(F)F)c2)c1 [I-201]
3 | 539 | 26 | Cn1cc(-c2cc(C(=O)/N=c3\[nH]c4ccccc4n3[C@H]3C[C@H](O)C[C@H](O)C3)ccn2)cn1 [I-207]
0.3 | 249 | 1 | Cn1cc(-c2cc(C(=O)/N=c3\[nH]c4ccccc4n3[C@H]3CC[C@@H](O)CC3)cc(N)n2)cn1 [I-211]
